Experimental data published in patent publication US20060069132A1, “Azolecarboxamide herbicides” (priority 2004, published 2006).

Experiments:
Test in all cases: Test C postemergence herbicide test
chickweed = type: in vivo, Stellaria media; conditions: for Chickweed plant response rating: 500 g ai/ha
Protocol: At the same time, plants selected from these crop and weed species and also winter barley (Hordeum vulgare L.), blackgrass (Alopecurus myosuroides Huds.), canarygrass (Phalaris minor Retz.), chickweed (Stellaria media (L.) Vill.), downy bromegrass (Bromus tectorum L.), green foxtail (Setaria viridis (L.) Beauv.), Italian ryegrass (Lolium multiflorum Lam.), wheat (Triticum aestivum L.), wild oat (Avenafatua L.) and windgrass (Apera spica-venti (L.) Beauv.) were treated with postemergence applications of some of the test chemicals formulated in the same manner. Plants ranged in height from 2 to 18 cm (1- to 4-leaf stage) for postemergence treatments. Plant species in the flooded paddy test consisted of rice (Oryza sativa), smallflower umbrella sedge (Cyperus difformis L.), ducksalad (Heteranthera limosa (Sw.) Willd.) and barnyardgrass (Echinochloa crus-galli (L.) Beauv.) grown to the 2-leaf stage for testing. Treated plants and controls were maintained in a greenhouse for 12 to 14 days, after which time all species were compared to controls and visually evaluated. Plant response ratings, summarized in Table C, are based on a scale of 0 to 100 where 0 is no effect and 100 is complete control. A dash (-) response means no test result.

windgrass = type: in vivo, Apera spica-venti
Summary of the method: (§1)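 Injury scored visually against controls on a 0 (no effect) to 100 (complete control) scale, 12 to 14 days after treatment in greenhouse. Flooded paddy plants treated at 2-leaf stage; postemergence plants at 1- to 4-leaf stage, 2 to 18 cm tall.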

canarygrass = type: in vivo, Phalaris minor
Summary of the method: as §1

winter barley = type: in vivo, Hordeum vulgare; conditions: for Barley, Winter plant response rating: 500 g ai/ha, scale 0 to 100
Summary of the method: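 Visual rating, 0 (no effect) to 100 (complete control), vs. controls at 12–14 d in greenhouse. Postemergence: 1–4-leaf plants, 2–18 cm. Paddy: flooded, barnyardgrass at 2-leaf stage.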

green foxtail = type: in vivo, Setaria viridis
Summary of the method: as §1

wheat = type: in vivo, Triticum aestivum
Summary of the method: as §1

blackgrass = type: in vivo, Alopecurus myosuroides; conditions: for Blackgrass plant response rating: 500 g ai/ha
Summary of the method: as §1

wild oat = type: in vivo, Avenafatua
Summary of the method: as §1

Italian ryegrass = type: in vivo, Lolium multiflorum
Summary of the method: as §1

downy bromegrass = type: in vivo, Bromus tectorum
Summary of the method: as §1

[1] = Postemergence, 250 g ai/ha, scale 0 to 100, 0 no effect, 100 complete control
[2] = postemergence, 125 g ai/ha, scale 0 to 100
[3] = postemergence, 31 g ai/ha, scale 0 to 100
[4] = postemergence, 62 g ai/ha, scale 0 to 100
[5] = Postemergence, 500 g ai/ha, scale 0 to 100
[6] = postemergence, 125 g ai/ha, scale 0 to 100 (0 no effect, 100 complete control)
[7] = postemergence, 62 g ai/ha, scale 0 to 100 (0 no effect, 100 complete control)
[8] = Postemergence, 500 g ai/ha, scale 0 to 100, 0 no effect, 100 complete control

SMILES | Plant response rating, Chickweed (chickweed; [1]) | Plant response rating, Chickweed (chickweed; [2]) | Plant response rating, Chickweed (chickweed; [3]) | Plant response rating, Chickweed (chickweed; [4]) | Chickweed plant response rating (chickweed; Postemergence, scale 0 to 100) | Plant response rating, Windgrass (windgrass; [2]) | Plant response rating, Windgrass (windgrass; [4]) | Plant response rating, Canarygrass (canarygrass; [1]) | Plant response rating, Canarygrass (canarygrass; [2]) | Plant response rating, Canarygrass (canarygrass; [4]) | Barley, Winter plant response rating (winter barley; Postemergence) | Plant response rating, Barley, Winter (winter barley; [1]) | Plant response rating, Barley, Winter (winter barley; [6]) | Plant response rating, Barley, Winter (winter barley; [7]) | Plant response rating, Foxtail, Green (green foxtail; [1]) | Plant response rating, Foxtail, Green (green foxtail; [2]) | Plant response rating, Foxtail, Green (green foxtail; [4]) | Plant response rating, Wheat (wheat; [2]) | Plant response rating, Wheat (wheat; [4]) | Blackgrass plant response rating (blackgrass; Postemergence, scale 0 to 100) | further results
CCn1nc(C(C)(C)C)cc1C(=O)Nc1ccc(F)c(C(=O)NCCF)c1 [Compound 60] | 10 | 10 | 5 | 5 | – | – | – | – | – | – | – | – | – | – | – | – | – | – | – | – | –
CCn1nc(C(C)(C)C)cc1C(=O)Nc1cccc(C(=O)OC)c1 [Compound 81] | 100 | 95 | 90 | 95 | – | – | – | – | – | – | – | – | – | – | – | – | – | – | – | – | –
C#CCOC(=O)c1cccc(NC(=O)c2cc(C(C)(C)C)nn2CC)c1 [Compound 84] | 70 | 50 | – | 0 | 70 | – | – | – | – | – | – | – | – | – | – | – | – | – | – | – | –
C=CCOC(=O)c1cccc(NC(=O)c2cc(C(C)(C)C)nn2CC)c1 [Compound 85] | 100 | 100 | – | 100 | 100 | – | – | – | – | – | – | – | – | – | – | – | – | – | – | – | –
CC(=NO)c1cccc(NC(=O)c2cc(C(C)(C)C)nn2CC(F)(F)F)c1 [Compound 112] | 100 | 10 | – | 0 | 100 | – | – | – | – | – | – | – | – | – | – | – | – | – | – | – | –
CCn1nc(C(C)(C)C)cc1C(=O)Nc1cccc(C#N)c1 [Compound 139] | 80 | 70 | 0 | 0 | – | – | – | – | – | – | – | – | – | – | – | – | – | – | – | – | –
CCn1nc(C(C)(C)C)cc1C(=O)Nc1cccc(C(=O)NC2CC2)n1 [Compound 146] | 100 | 80 | – | 10 | – | – | – | – | – | – | – | – | – | – | – | – | – | – | – | – | –
CCn1nc(C(C)(C)C)cc1C(=O)Nc1cccc(OC(F)(F)F)c1 [Compound 272] | 100 | 100 | – | 95 | 100 | 70 | 60 | 40 | 35 | 35 | 35 | 35 | 35 | 35 | 45 | 40 | 35 | 35 | 30 | 65 | Windgrass plant response rating (windgrass; [5]): 85; Canarygrass plant response rating (canarygrass; [5]): 55; Foxtail, Green plant response rating (green foxtail; [5]): 60; Wheat plant response rating (wheat; [5]): 35; Plant response rating, Wheat (wheat; [1]): 35; Plant response rating, Blackgrass (blackgrass; [1]): 45; Plant response rating, Blackgrass (blackgrass; [2]): 45; Plant response rating, Blackgrass (blackgrass; [4]): 35; Oat, Wild plant response rating (wild oat; [5]): 65; Plant response rating, Oat, Wild (wild oat; [1]): 55; Plant response rating, Oat, Wild (wild oat; [2]): 45; Plant response rating, Oat, Wild (wild oat; [4]): 40; Ryegrass, Italian plant response rating (Italian ryegrass; [5]): 60; Plant response rating, Ryegrass, Italian (Italian ryegrass; [1]): 45; Plant response rating, Ryegrass, Italian (Italian ryegrass; [2]): 45; Plant response rating, Ryegrass, Italian (Italian ryegrass; [4]): 30; Bromegrass, Downy plant response rating (downy bromegrass; [5]): 65; Plant response rating, Bromegrass, Downy (downy bromegrass; [1]): 60; Plant response rating, Bromegrass, Downy (downy bromegrass; [2]): 55; Plant response rating, Bromegrass, Downy (downy bromegrass; [4]): 30
C=CCOc1cccc(NC(=O)c2cc(C(C)(C)C)nn2CC)c1 [Compound 412] | – | – | – | – | – | 45 | 40 | 60 | 45 | 45 | 50 | 40 | 35 | 30 | 65 | 60 | 45 | 35 | 35 | 65 | Plant response rating, Windgrass (windgrass; [8]): 65; Plant response rating, Canarygrass (canarygrass; [8]): 60; Plant response rating, Foxtail, Green (green foxtail; [8]): 65; Plant response rating, Wheat (wheat; [8]): 50; Plant response rating, Blackgrass (blackgrass; [1]): 65; Plant response rating, Blackgrass (blackgrass; [2]): 45; Plant response rating, Blackgrass (blackgrass; [4]): 45; Plant response rating, Oat, Wild (wild oat; [8]): 70; Plant response rating, Oat, Wild (wild oat; [2]): 65; Plant response rating, Oat, Wild (wild oat; [4]): 60; Plant response rating, Ryegrass, Italian (Italian ryegrass; [8]): 60; Plant response rating, Ryegrass, Italian (Italian ryegrass; [2]): 45; Plant response rating, Ryegrass, Italian (Italian ryegrass; [4]): 40; Plant response rating, Bromegrass, Downy (downy bromegrass; [1]): 55; Plant response rating, Bromegrass, Downy (downy bromegrass; [8]): 60; Plant response rating, Bromegrass, Downy (downy bromegrass; [2]): 45; Plant response rating, Bromegrass, Downy (downy bromegrass; [4]): 40
CCc1nn(C(C)(C)C)nc1C(=O)Nc1cccc(C(=O)NC2CC2)c1 [Compound 417] | – | – | – | – | – | 40 | 40 | 45 | 40 | 30 | 35 | 30 | 20 | 20 | 60 | 55 | 50 | 20 | 20 | 60 | Plant response rating, Windgrass (windgrass; [8]): 55; Plant response rating, Canarygrass (canarygrass; [8]): 55; Plant response rating, Foxtail, Green (green foxtail; [8]): 65; Plant response rating, Wheat (wheat; [8]): 35; Plant response rating, Blackgrass (blackgrass; [1]): 60; Plant response rating, Blackgrass (blackgrass; [2]): 50; Plant response rating, Blackgrass (blackgrass; [4]): 35; Plant response rating, Oat, Wild (wild oat; [8]): 60; Plant response rating, Oat, Wild (wild oat; [2]): 40; Plant response rating, Oat, Wild (wild oat; [4]): 35; Plant response rating, Ryegrass, Italian (Italian ryegrass; [8]): 60; Plant response rating, Ryegrass, Italian (Italian ryegrass; [2]): 40; Plant response rating, Ryegrass, Italian (Italian ryegrass; [4]): 35; Plant response rating, Bromegrass, Downy (downy bromegrass; [1]): 50; Plant response rating, Bromegrass, Downy (downy bromegrass; [8]): 65; Plant response rating, Bromegrass, Downy (downy bromegrass; [2]): 40; Plant response rating, Bromegrass, Downy (downy bromegrass; [4]): 35
